Experimental data from US20030232862A1 (priority 2002, published 2003).
Entries after “also recorded” stand apart in the source; their conditions may differ. Counter-ions that a name gives are not always drawn. Each block holds one compound with its values, some of them ahead of it.

How the values were obtained:
Cyclooxygenase (COX) = target: T1, Cyclooxygenase (COX) (Ovis aries, UniProt P05979); test: COX inhibition assay, single dose screen (Table 2); type: biochemical
T1 sequence (P05979 25-600): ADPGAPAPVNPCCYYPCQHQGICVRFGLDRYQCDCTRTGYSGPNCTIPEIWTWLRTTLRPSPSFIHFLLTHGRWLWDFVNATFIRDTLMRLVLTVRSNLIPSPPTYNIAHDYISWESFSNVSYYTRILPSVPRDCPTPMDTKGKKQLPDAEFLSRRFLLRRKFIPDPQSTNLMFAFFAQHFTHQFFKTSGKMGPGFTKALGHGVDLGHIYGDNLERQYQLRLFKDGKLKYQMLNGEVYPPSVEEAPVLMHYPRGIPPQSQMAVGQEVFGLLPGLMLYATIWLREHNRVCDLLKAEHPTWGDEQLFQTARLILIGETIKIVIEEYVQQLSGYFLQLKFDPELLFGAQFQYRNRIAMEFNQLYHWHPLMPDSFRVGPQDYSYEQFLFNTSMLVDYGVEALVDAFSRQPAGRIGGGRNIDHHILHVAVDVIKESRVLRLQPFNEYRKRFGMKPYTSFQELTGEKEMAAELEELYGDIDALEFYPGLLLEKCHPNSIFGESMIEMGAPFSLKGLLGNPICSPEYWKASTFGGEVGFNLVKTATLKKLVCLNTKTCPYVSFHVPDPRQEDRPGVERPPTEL

[1] = system: HT-29 colon adenocarcinoma cells; test: Apoptosis by DNA fragmentation assay in HT-29 cells; type: cell-based, human; details: for Apoptosis: Table 9 qualitative profile; as to Apoptosis: key: −: Not active; +: Slightly active; + +: Moderately active; + + +: Strongly active; + + + +: Highly active
[2] = system: premalignant lesions in mouse mammary gland organ culture; test: Mammary gland organ culture model; type: cell-based; details: Table 9 qualitative profile; also: key: −: Not active; +: Slightly active; + +: Moderately active; + + +: Strongly active; + + + +: Highly active
Source text: Test compounds identified by the above methods can be tested for antineoplastic activity by their ability to inhibit the incidence of pre-neoplastic lesions in a mammary gland organ culture system. This mouse mammary gland organ culture technique has been successfully used by other investigators to study the effects of known antineoplastic agents such as certain NSAIDs, retinoids, tamoxifen, selenium, and certain natural products, and is useful for validation of the screening method of the present invention.
For example, female BALB/c mice can be treated with a combination of estradiol and progesterone daily, in order to prime the glands to be responsive to hormones in vitro. The animals are sacrificed, and thoracic mammary glands are excised aseptically and incubated for ten days in growth media supplemented with insulin, prolactin, hydrocortisone, and aldosterone. DMBA (7,12-dimethylbenz(a)anthracene) is added to medium to induce the formation of premalignant lesions. Fully developed glands are then deprived of prolactin, hydrocortisone, and aldosterone, resulting in the regression of the glands but not the pre-malignant lesions.
The test compound is dissolved in DMSO and added to the culture media for the duration of the culture period. At the end of the culture period, the glands are fixed in 10% formalin, stained with alum carmine, and mounted on glass slides. The incidence of forming mammary lesions is the ratio of the glands with mammary lesions to […]. The incidence of mammary lesions in test compound treated glands is compared with that of the untreated glands.
The extent of the area occupied by the mammary lesions can be quantitated by projecting an image of the gland onto a digitation pad. The area covered by the gland is traced on the pad and considered as 100% of the area. The space covered by each of the non-regressed structures is also outlined on the digitization pad and quantitated by the computer.
Mammary gland organ culture experiment were performed as previously described (Mehta and Moon, Cancer Research, 46: 5832-5835, 1986).

HT-29 cells = test: Growth inhibition of HT-29 cells (SRB assay; trypan blue counting in time course); type: cell-based, human; details: for Growth Inhibition: Table 9 qualitative profile
[3] = target: cGMP PDE purified from human colon HT-29 cultured tumor cells (Homo sapiens, UniProt O76074); test: cGMP PDE inhibition assay; type: biochemical; details: for PDE Inhibition: Table 9 qualitative profile; for IC50: read-out: IC50 for inhibition of cGMP PDE
[4] = system: SW-480 colon adenocarcinoma cells
human breast xenograft = details: in vivo; cited from earlier work
[5] = target: T2, purified cyclooxygenase (Type 1) from ram seminal vesicles (Ovis aries, UniProt P05979); test: Purified cyclooxygenase (Type 1) activity; type: biochemical; details: FIG. 5
T2 construct: using purified cyclooxygenase from ram seminal vesicles as described previously; from tissue; host or cells: ram seminal vesicles
T2 sequence (P05979 25-600): T1 sequence (P05979 25-600)

[6] = target: T3, PDE Peak A (PDE5) from SW480 cells (Homo sapiens, UniProt O76074); test: cGMP hydrolysis by PDE Peak A (PDE5) isolated from SW480 cells; type: biochemical
T3 construct: To isolate the novel phosphodiesterase from SW480, approximately four hundred million SW480 cells were grown to confluence; endogenous in cells; host or cells: SW480 colon cancer cells; 105,000 g supernatant, DEAE-Trisacryl M fraction

[7] = target: T4, novel cGMP-specific PDE Peak B from SW480 cells (Homo sapiens, UniProt O00408); test: cGMP hydrolysis by novel PDE Peak B isolated from SW480 cells; type: biochemical
T4 construct: IC50 Peak B (μM)
T4 sequence (O00408 whole entry): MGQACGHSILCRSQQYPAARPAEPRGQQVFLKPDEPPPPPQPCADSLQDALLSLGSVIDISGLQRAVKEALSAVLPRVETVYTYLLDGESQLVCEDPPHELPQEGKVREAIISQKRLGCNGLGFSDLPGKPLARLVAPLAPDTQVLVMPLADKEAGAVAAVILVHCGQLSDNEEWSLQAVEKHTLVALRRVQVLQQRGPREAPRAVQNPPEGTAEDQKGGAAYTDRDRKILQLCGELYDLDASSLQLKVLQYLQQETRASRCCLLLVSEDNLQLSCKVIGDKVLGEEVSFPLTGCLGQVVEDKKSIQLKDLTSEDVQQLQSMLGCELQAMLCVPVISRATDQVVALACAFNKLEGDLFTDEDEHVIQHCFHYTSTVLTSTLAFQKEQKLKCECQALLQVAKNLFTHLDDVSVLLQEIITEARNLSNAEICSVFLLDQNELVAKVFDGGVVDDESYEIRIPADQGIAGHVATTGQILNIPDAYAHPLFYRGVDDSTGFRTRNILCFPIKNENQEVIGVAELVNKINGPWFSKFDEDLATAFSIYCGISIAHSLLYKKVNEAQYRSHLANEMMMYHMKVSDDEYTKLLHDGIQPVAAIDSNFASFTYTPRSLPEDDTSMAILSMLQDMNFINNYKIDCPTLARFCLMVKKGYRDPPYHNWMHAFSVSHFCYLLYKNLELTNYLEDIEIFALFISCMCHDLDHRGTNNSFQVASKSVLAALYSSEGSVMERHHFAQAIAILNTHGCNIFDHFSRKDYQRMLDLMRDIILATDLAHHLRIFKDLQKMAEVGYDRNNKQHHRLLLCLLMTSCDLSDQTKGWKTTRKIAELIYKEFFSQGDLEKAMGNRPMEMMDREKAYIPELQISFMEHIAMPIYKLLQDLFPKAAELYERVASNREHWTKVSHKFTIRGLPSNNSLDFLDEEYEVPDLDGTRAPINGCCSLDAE

28-day study in rats = type: in vivo
[8] = Seven-day dose-range finding study in rats; type: in vivo; details: any dose level
[9] = system: PrEC primary prostate epithelial cells derived from normal prostate; test: Histone-associated DNA fragmentation in PrEC cells; type: cell-based; details: 50 μM, up to 4 days
Procedure: (§1) The androgen-sensitive prostate tumor cell line, LNCaP (from ATCC (Rockville, Md.)) was propagated under standard conditions using […] medium containing 5% fetal calve serum and 2 mM glutamine. Primary prostate epithelial cell cultures (PrEC) derived from normal prostate (from Clonetics Inc. (San Diego, Calif.)) were grown under the same conditions as the tumor cell line except a serum-free medium optimized for the growth of such cultures was used (Clonetics Inc). For the experiments, LNCaP or PrEC cells were seeded in 96 well plates at a density of 10,000 cells per well. After 24 hours, the cells were treated with either vehicle (0.1% DMSO) or 50 μM Compound I (free base) solubilized in DMSO. After various drug treatment times (4, 24, 48, 72, or 99 hours) the cells were lysed and processed for measurement of histone-associated DNA as an indicator of apoptotic cell death (see, Piazza et al., Cancer Research 57: 2452-2459, 1997).

[10] = dog, in vivo
[11] = system: LNCaP prostate tumor cell line; test: Histone-associated DNA fragmentation in LNCaP cells; type: cell-based; details: 50 μM, up to 4 days
Procedure: as §1

[12] = Single, escalating dose human study; type: in vivo
[13] = target: T5, cGMP binding sites of GST-cGB-PDE5 fusion protein (Homo sapiens, UniProt O76074); test: cGMP binding assay with GST-cGB-PDE5 fusion protein; details: 3H-cGMP 2 μM
T5 construct: made in house; host or cells: E. coli BL21 (DE3)

[14] = system: PDE4 purified from human colon HT-29 cultured tumor cells; test: PDE4 inhibition assay; type: biochemical
Procedure: (Thompson, W. J., Teraski, W. L., Epstein, P. M., Strada, S. J., Advances in Cyclic Nucleotide Research, 10:69-92, 1979, which is incorporated herein by reference). […] The mixture is incubated at 30° C. for 10 minutes with isolated PDE of this invention. Reactions are terminated, for example, by boiling the reaction mixture for 75 seconds. After cooling on ice, 100 μl of 0.5 mg/mL snake venom (O. Hannah venom available from Sigma) is added and incubated for 10 minutes at 30° C. This reaction is then terminated by the addition of an alcohol, e.g. 1 mL of 100% methanol. Assay samples are applied to 1 mL Dowex 1-X8 column; and washed with 1 mL of 100% methanol. The amount of radioactivity in the breakthrough and the wash from the column is combined and measured with a scintillation counter. The degree of phosphodiesterase inhibition is determined by calculating the amount of radioactivity in drug-treated reactions and comparing against a control sample (a reaction mixture lacking the tested compound but with drug solvent).

[15] = system: SW-480 colon adenocarcinoma cells; test: Apoptosis fold induction protocol (DNA fragmentation, Table 4); details: Homo sapiens, SW480, read-out: Fold induction at 100 μM (apoptosis), 100 μM; cell line not given

SMILES: CCN(CC)CCSC12CC(=O)OC1(C)/C(=C/c1ccc(S(C)(=O)=O)cc1)c1ccc(F)cc12 (racemic) [A, rac-threo-(E)-1-(N,N′-diethylaminoethanethio)-1-(butan-1′,4′-olido)-[3′,4′:1,2]-6-fluoro-2-methyl-3-(p-methylsulfonylbenzylidene)-indan]
% Inhibition at 100 μM (cyclooxygenase) (Cyclooxygenase (COX); 100 μM): <25%
Apoptosis [1]: + +
Mammary Gland Organ Culture [2]: + +
% Inhibition at 100 μM (growth) (HT-29 cells; 100 μM): 68%
Growth Inhibition (HT-29 cells): + + +
% Inhibition at 10 μM (cGMP PDE) [3]: <25%
PDE Inhibition [3]: −
Fold induction at 100 μM (apoptosis) [4]: <2.0 fold

SMILES: COc1cc2ncnc(Nc3ccc(F)c(Cl)c3)c2cc1OCCCN1CCOCC1 [Iressa, 4-quinazolinamine, N-(3-chloro-4-fluorophenyl)-7-methoxy-6-[3-(4-morpholinyl)propoxy]-(9CI)]
human breast xenograft growth (human breast xenograft): inhibits human breast xenograft growth

SMILES: CC1=C(CC(=O)NCc2ccccc2)c2cc(F)ccc2/C1=C\c1ccncc1 [Compound I, (Z)-5-fluoro-2-methyl-(4-pyridylidene)-3-(N-benzyl)indenylacetamide hydrochloride]
liver weights, 28-day study (28-day study in rats; 2000 mg/kg/day): statistically significant increase in liver weights
thyroid weights, 28-day study (28-day study in rats; 2000 mg/kg/day): statistically significant increases in thyroid weights
histopathological evaluation, 28-day study (28-day study in rats; generally limited to a small number of animals at 2000 mg/kg/day): traces of follicular cell hypertrophy, increased numbers of mitotic figures (suggestive of possible cell proliferation) in the thyroid gland and mild centrilobular hypertrophy in the liver
hematology, blood chemistry, microscopic pathology, seven-day study [8]: No hematological or blood chemistry changes nor any microscopic pathology changes
DNA fragmentation in PrEC cells [9]: did not affect DNA fragmentation
drug-related effects, single and seven consecutive doses in dogs [10]: At no time in either dosing phase were any obvious signs of drug-related effects observed
signs of toxicity, single dose in dogs ([10]; 1000 mg/kg): no signs of toxicity
histone-associated fragmented DNA in LNCaP cell cultures [11]: time-dependent increase
safety in human study [12]: safe

Further lines, with some results ahead:

% Inhibition at 10 μM (cGMP PDE) [3]: 75%
PDE Inhibition [3]: + + + +
IC50 [3]: 0.08 µM
SMILES: COc1cc(/C=C2/C(C)=C(CC(=O)NCc3ccccc3)c3cc(F)ccc32)cc(OC)c1OC [Compound E, (Z)-5-Fluoro-2-methyl-1-(3,4,5-trimethoxybenzylidene)-3-indenylacetamide, N-benzyl]
Apoptosis [1]: + + + +
COX-I inhibition [5]: neither test compound B and E significantly inhibits COX-I
Mammary Gland Organ Culture [2]: + + + +
Growth Inhibition (HT-29 cells): + + + +
competitive (with cGMP) inhibition/binding, Peak A [6]: competitively (with cGMP) bind; also recorded: competitively inhibited
competitive (with cGMP) inhibition/binding, Peak B [7]: competitively (with cGMP) binds; also recorded: competitively inhibited

inhibition at 100 µM (Cyclooxygenase (COX)): < 25%
COX Inhibition (Cyclooxygenase (COX); Table 9 qualitative profile): −
EC50 ([1]; Homo sapiens, HT-29, 48 hours): ~175 µM
IC50 [14]: 58 µM
PDE Inhibition [3]: + + +
inhibition at 10 µM ([3]; read-out: % Inhibition at 10 μM (cGMP PDE), 10 μM): < 25%
IC50 [3]: 18 µM
inhibition at 20 µM ([3]; read-out: inhibition of cGMP PDE at 20 μM, 20 μM): > 50%
SMILES: COc1cc(/C=C2/C(C)=C(CC(=O)O)c3cc(F)ccc32)cc(OC)c1OC [Compound B, (Z)-5-Fluoro-2-methyl-1-(3,4,5-trimethoxybenzylidene)-3-acetic acid]
Apoptosis [1]: + + +
competition with cGMP in binding of GST-cGB-PDE5 [13]: do not bind to the cGMP binding sites of PDE5
COX-I inhibition [5]: neither test compound B and E significantly inhibits COX-I
Mammary Gland Organ Culture [2]: + +
Growth Inhibition (HT-29 cells): + + +
fold induction at 100 µM [15]: > 2
